Experimental data taken from PubChem BioAssay (NCI).
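GI50 = concentration required for 50% inhibition of growth. The concentration for full growth arrest is given as TGI.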

Key:
Experiment in all cases: DTP human tumour cell line panel, 384-well format
NCI-H460 NSCLC = test system: NCI-H460 NSCLC
SF-268 CNS = test system: SF-268 CNS
NCI-H23 lung = test system: NCI-H23 lung
SN12C renal = test system: SN12C renal
OVCAR-5 ovarian = test system: OVCAR-5 ovarian
SNB-75 CNS = test system: SNB-75 CNS
CCRF-CEM leukemia = test system: CCRF-CEM leukemia
NCI/ADR-RES ovarian = test system: NCI/ADR-RES ovarian
UACC-257 melanoma = test system: UACC-257 melanoma
HL-60(TB) leukemia = test system: HL-60(TB) leukemia
UACC-62 melanoma = test system: UACC-62 melanoma
HOP-62 NSCLC = test system: HOP-62 NSCLC
MCF7 breast = test system: MCF7 breast
HOP-92 NSCLC = test system: HOP-92 NSCLC
SK-MEL-5 melanoma = test system: SK-MEL-5 melanoma
LOX IMVI melanoma = test system: LOX IMVI melanoma
U251 glioblastoma = test system: U251 glioblastoma
SK-MEL-2 melanoma = test system: SK-MEL-2 melanoma
NCI-H522 lung = test system: NCI-H522 lung
KM12 colon = test system: KM12 colon
MOLT-4 leukemia = test system: MOLT-4 leukemia
OVCAR-8 ovarian = test system: OVCAR-8 ovarian
A498 renal = test system: A498 renal
SF-295 CNS = test system: SF-295 CNS
CAKI-1 renal = test system: CAKI-1 renal
K-562 leukemia = test system: K-562 leukemia
HCC-2998 colon = test system: HCC-2998 colon
MDA-MB-468 breast = test system: MDA-MB-468 breast
DU-145 prostate = test system: DU-145 prostate
SK-MEL-28 melanoma = test system: SK-MEL-28 melanoma
EKVX NSCLC = test system: EKVX NSCLC
HT29 colon = test system: HT29 colon
T-47D breast = test system: T-47D breast
NCI-H322M lung = test system: NCI-H322M lung
M14 melanoma = test system: M14 melanoma
SNB-19 CNS = test system: SNB-19 CNS
MALME-3M melanoma = test system: MALME-3M melanoma
HS 578T breast = test system: HS 578T breast
TK-10 renal = test system: TK-10 renal
MDA-MB-435 melanoma = test system: MDA-MB-435 melanoma
SK-OV-3 ovarian = test system: SK-OV-3 ovarian
786-0 renal = test system: 786-0 renal
HCT-15 colon = test system: HCT-15 colon
HCT-116 colon = test system: HCT-116 colon
OVCAR-4 ovarian = test system: OVCAR-4 ovarian
IGROV1 ovarian = test system: IGROV1 ovarian
ACHN renal = test system: ACHN renal

Structure (SMILES): CC(C)N(CCCNC(=O)Nc1ccc(C(C)(C)C)cc1)C[C@H]1O[C@@H](n2ccc3c(N)ncnc32)[C@H](O)[C@@H]1O
- GI50 (NCI-H460 NSCLC): > 100 µM
- TGI (NCI-H460 NSCLC): > 100 µM
- GI50 (SF-268 CNS): > 63.7 µM
- TGI (SF-268 CNS): > 100 µM
- GI50 (NCI-H23 lung): > 100 µM
- TGI (NCI-H23 lung): > 100 µM
- GI50 (SN12C renal): > 100 µM
- TGI (SN12C renal): > 100 µM
- GI50 (OVCAR-5 ovarian): > 100 µM
- TGI (OVCAR-5 ovarian): > 100 µM
- GI50 (SNB-75 CNS): > 100 µM
- TGI (SNB-75 CNS): > 100 µM
- GI50 (CCRF-CEM leukemia): > 95.3 µM
- TGI (CCRF-CEM leukemia): > 100 µM
- GI50 (NCI/ADR-RES ovarian): > 100 µM
- TGI (NCI/ADR-RES ovarian): > 100 µM
- GI50 (UACC-257 melanoma): 41.5 µM
- TGI (UACC-257 melanoma): > 95.1 µM
- GI50 (HL-60(TB) leukemia): > 92.8 µM
- TGI (HL-60(TB) leukemia): > 100 µM
- GI50 (UACC-62 melanoma): > 100 µM
- TGI (UACC-62 melanoma): > 100 µM
- GI50 (HOP-62 NSCLC): > 100 µM
- TGI (HOP-62 NSCLC): > 100 µM
- GI50 (MCF7 breast): > 100 µM
- TGI (MCF7 breast): > 100 µM
- GI50 (HOP-92 NSCLC): > 100 µM
- TGI (HOP-92 NSCLC): > 100 µM
- GI50 (SK-MEL-5 melanoma): > 100 µM
- TGI (SK-MEL-5 melanoma): > 100 µM
- GI50 (LOX IMVI melanoma): > 89 µM
- TGI (LOX IMVI melanoma): > 100 µM
- GI50 (U251 glioblastoma): > 100 µM
- TGI (U251 glioblastoma): > 100 µM
- GI50 (SK-MEL-2 melanoma): > 100 µM
- TGI (SK-MEL-2 melanoma): > 100 µM
- GI50 (NCI-H522 lung): > 100 µM
- TGI (NCI-H522 lung): > 100 µM
- GI50 (KM12 colon): > 100 µM
- TGI (KM12 colon): > 100 µM
- GI50 (MOLT-4 leukemia): 44.7 µM
- TGI (MOLT-4 leukemia): > 100 µM
- GI50 (OVCAR-8 ovarian): > 100 µM
- TGI (OVCAR-8 ovarian): > 100 µM
- GI50 (A498 renal): > 100 µM
- TGI (A498 renal): > 100 µM
- GI50 (SF-295 CNS): > 100 µM
- TGI (SF-295 CNS): > 100 µM
- GI50 (CAKI-1 renal): > 100 µM
- TGI (CAKI-1 renal): > 100 µM
- GI50 (K-562 leukemia): > 100 µM
- TGI (K-562 leukemia): > 100 µM
- GI50 (HCC-2998 colon): > 100 µM
- TGI (HCC-2998 colon): > 100 µM
- GI50 (MDA-MB-468 breast): 23.1 µM
- TGI (MDA-MB-468 breast): > 100 µM
- GI50 (DU-145 prostate): > 100 µM
- TGI (DU-145 prostate): > 100 µM
- GI50 (SK-MEL-28 melanoma): > 100 µM
- TGI (SK-MEL-28 melanoma): > 100 µM
- GI50 (EKVX NSCLC): > 100 µM
- TGI (EKVX NSCLC): > 100 µM
- GI50 (HT29 colon): > 87.2 µM
- TGI (HT29 colon): > 100 µM
- GI50 (T-47D breast): > 96.4 µM
- TGI (T-47D breast): > 100 µM
- GI50 (NCI-H322M lung): > 100 µM
- TGI (NCI-H322M lung): > 100 µM
- GI50 (M14 melanoma): > 100 µM
- TGI (M14 melanoma): > 100 µM
- GI50 (SNB-19 CNS): > 100 µM
- TGI (SNB-19 CNS): > 100 µM
- GI50 (MALME-3M melanoma): 61.6 µM
- TGI (MALME-3M melanoma): > 100 µM
- GI50 (HS 578T breast): > 100 µM
- TGI (HS 578T breast): > 100 µM
- GI50 (TK-10 renal): > 100 µM
- TGI (TK-10 renal): > 100 µM
- GI50 (MDA-MB-435 melanoma): > 100 µM
- TGI (MDA-MB-435 melanoma): > 100 µM
- GI50 (SK-OV-3 ovarian): > 100 µM
- TGI (SK-OV-3 ovarian): > 100 µM
- GI50 ([…]-0 renal): > 100 µM
- TGI (786-0 renal): > 100 µM
- GI50 (HCT-15 colon): > 100 µM
- TGI (HCT-15 colon): > 100 µM
- GI50 (HCT-116 colon): > 100 µM
- TGI (HCT-116 colon): > 100 µM
- GI50 (OVCAR-4 ovarian): > 100 µM
- TGI (OVCAR-4 ovarian): > 100 µM
- GI50 (IGROV1 ovarian): > 72.4 µM
- TGI (IGROV1 ovarian): > 100 µM
- GI50 (ACHN renal): > 100 µM
- TGI (ACHN renal): > 100 µM
